Laboratory results: patent publication US7838511B2, “Compositions and methods for treating, preventing and/or ameliorating cancers, the onset of cancers or the symptoms of cancers” (The Board of Regents of the University of Texas System, priority 2003, dated 2010)

Key:
[1] = system: Leiomyosarcoma of the bladder; assay: Bladder cancer (leiomyosarcoma) in a cat, ultrasonographic follow-up; assay type: in vivo, domestic cat; details: assessed by ultrasound
Protocol: To confirm that the PC-NSAIDs also have anti-cancer activity in vivo, a study has been performed on a domestic cat. As summarized in Table 3, the animal was diagnosed in December of 2003 with Leiomyosarcoma of the bladder, a particularly aggressive form of cancer.
The cat was treated surgically for resection of the tumor and was then placed on standard Vincristine chemotherapy for three weeks. […] Eventually, the tumor began to grow again and a treatment of lecithin combined with an NSAID, piroxicam, was begun. […] The cat is continuing to be treated with PC-piroxicam as of this filing.

[2] = system: MCF-7 cells; assay: Lactate dehydrogenase (LDH) release (necrosis) of MCF-7 cells; assay type: cell-based; details: 0.6 mM, 5 hours; FIG. 4
Protocol: The growth inhibitor activity of the PC-ASA preparations on MCF-7 cells could be through increased apoptosis or necrosis or inhibition of cell proliferation. To differentiate between the first two possibilities, the effect of the PC-ASA preparations on release of the cytosolic enzyme lactate dehydrogenase (LDH) as a measure of necrosis were performed. For this study, MCF-7 cells were exposed to 2.5 and 5 mM ASA or PC-ASA preparations for 48 hours, as before. The media was collected and assayed for LDH activity (the assay is a kit available from Sigma Chemical Co., St. Louis, Mo.). To act as a positive control, some cells were exposed to a bile acid, 0.6 mM sodium deoxycholate (DOC), for 5 hours before LDH assay. […] Yet the ASA and PC-ASA preparations clearly reduce the number of MCF-7 cells at these concentrations. The most likely explanation for these findings is that the NSAIDs are inducing apoptosis rather than necrosis. This possibility is consistent with reports in the literature (see, e.g., Xiaojun L, Xie W, Reed D, Bradshaw W S, Simmons D L. Nonsteroidal antiinflammatory drugs cause apoptosis and induce cyclooxygenases in chicken embryo fibroblasts. Proc Natl Acad Sci USA 1995; 92:7961-7965.). Another possibility is that the PC-NSAID act by inhibiting cell proliferation.

[3] = system: SW-480 colon cancer cell line; assay: SW-480 colon cancer cell DNA synthesis; assay type: cell-based; details: mean ± SEM
Protocol: (§1) PC-NSAIDs were also tested on another type of cancer, a colon cancer cell line, SW-480.

[4] = system: SW-480 colon cancer cell line; assay: SW-480 colon cancer cell number; assay type: cell-based; details: mean ± SEM
Protocol: as §1

[5] = system: MCF-7 breast cancer cells; assay: MCF-7 DNA synthesis (thymidine incorporation into cellular DNA); assay type: cell-based; details: 5 mM, mean ± SEM
Protocol: Studies were further performed to determine the mechanism by which ASA and PC-ASA reduced cell number. MCF-7 cells were again grown in the absence or presence of ASA and PC-ASA, and cell proliferation was assessed by measurement of titriated thymidine incorporation into cellular DNA.

[6] = system: MCF-7 breast cancer cells; assay: MCF-7 breast cancer cell growth / cell number (MTT assay); assay type: cell-based; details: for Cell number (% control): mean ± SEM
Protocol: Using MCF-7 breast cancer cells grown in culture, a dose-response to aspirin (1.25 to 20 mM) was performed initially. After 48 hours of exposure to the various aspirin (acetyl salicylic acid, ASA) concentrations, mitochondrial 3-(4,5-dimethylthiazol-2-yl)-2,5-diphenyltetrazolium bromide (MTT) assays were performed. The MTT assay produces a measure of cell number and is used to monitor growth or inhibition of growth of the MCF-F breast cancer cells, i.e., measure the relative growth inhibitor activity of the compositions.
To test the relative growth inhibitor activity of phospholipid associated aspirin (PC-ASA) preparations, PC-ASA preparations were made having ASA concentrations that gave no more than 50% inhibition of growth (e.g., 2.5 and 5 mM) as shown in FIG. 2. In this example and in all subsequent examples, cell growth was assessed by measuring mitochondrial 3-(4,5-dimethylthiazol-2-yl)-2,5-diphenyltetrazolium bromide (MTT) activity. Those concentration of ASA were chosen so that any PC effects could be readily observed. After the preparation of the PC-ASA preparation, MCF-7 breast cancer cells were exposed for 48 hours to either ASA or a PC-ASA having the same ASA concentration.
MCF-7 breast cancer cells were grown in culture and exposed to aspirin (acetyl salicylic acid, ASA) and PC-ASA at equimolar concentrations. An assay was performed to estimate cell number.

CC[C@]1(O)C[C@H]2CN(CCc3c([nH]c4ccccc34)[C@@](C(=O)OC)(c3cc4c(cc3OC)N(C=O)[C@H]3[C@@](O)(C(=O)OC)[C@H](OC(C)=O)[C@]5(CC)C=CCN6CC[C@]43[C@@H]65)C2)C1 [Vincristine]
effect on tumor growth (in words) [1]: did not stop the remaining tumor growth

sodium deoxycholate [DOC]
LDH release (necrosis), positive control [2]: caused the release of cellular LDH

CC(C)Cc1ccc(C(C)C(=O)O)cc1 (stereo not drawn) [IBU, ibuprofen]
DNA synthesis (% control) ([3]; 1 mM): 79 ± 1 % control | Cell number (% control) ([4]; 1 mM): 81 ± 2 % control

CC(=O)Oc1ccccc1C(=O)O [ASA, acetyl salicylic acid]
DNA synthesis (% control) ([3]; 5 mM): 102 ± 4 % control | DNA synthesis (% control) [5]: 85 ± 8 % Control | Cell number (% control) ([4]; 5 mM): 68 ± 3 % control | inhibition of growth ([6]; ASA 2.5 and 5 mM, MTT, FIG. 2): no more than 50% | Cell number (% control) ([6]; MCF-7, 5 mM): 55 ± 3 % Control | ASA concentration with inhibitor effect on growth of the cells ([6]; MTT assay, 48 hours exposure, dose-response 1.25 to 20 mM, FIG. 2): ≥ 2.5 mM

phosphatidylcholine [PC]
DNA synthesis (% control) ([3]; 1 mM): 97 ± 5 % control | DNA synthesis (% control) ([3]; 5 mM): 65 ± 4 % control | DNA synthesis (% control) [5]: 41 ± 1 % Control | Cell number (% control) ([4]; 1 mM): 106 ± 13 % control | Cell number (% control) ([4]; 5 mM): 106 ± 7 % control | inhibiting the growth of the breast cancer cells (in words) ([6]; 2.5 and 5 mM, 48 hours, MTT, FIG. 3): did not adversely affect the growth of the cells | inhibiting the growth of the breast cancer cells (in words, Table 1) ([6]; MCF-7, 5 mM, equimolar): not effective at inhibiting the growth of the cells | Cell number (% control) ([6]; MCF-7, 5 mM): 114 ± 3 % Control
